Reference: US7169815B2, “3-methoxybenzyl thiourea derivatives and improved lipid compositions containing same” (The United States of America as represented by the …, priority 2000, dated 2007)

Assays:
[1] = Oxidative Stability Index (OSI) of refined meadowfoam seed oil plus additives; conditions: 130° C.; for increase in the OSI time: refined meadowfoam seed oil, versus oil with no additives
Excerpt: (§1) A presently preferred method of determining oxidative stability of lipids and oils employs the Oxidative Stability Index (OSI), which determines the oxidative stability of an oil by passing air through a sample under stringent temperature control. (Firestone, Oxidative Stability Index (OSI): Official Methods of Recommended Practices of the American Oil Chemists' Society (AOCS), 4th Ed. American Oil Chemists Society, Champaign, Ill., AOCS Official Method Cd 12b-92, 1993.) In this method, a stream of air is passed through the oil sample, which aids in the rapid degradation of the triglyceride into volatile organic acids. The air stream flushes the volatile acids from the oil into a conductivity cell containing water where the acids are solubilized. These acids, once dissolved in the water solution, disassociate into ions, thus changing the conductivity of the water. Therefore, a continuous measure of the conductivity of the cell by computer will indicate when a rapid rise in the conductivity occurs that corresponds to the induction point, oxidative failure of the sample. The time to the induction point is the OSI time. […] Saturated fatty acid methyl ester (FAME) standards commercially available from Alltech Associates (Deerfield, Ill.) may be used to calibrate the OSI determinations.
(§2) OSI determinations may be performed on an oxidative stability instrument manufactured by Omnion (Rockland, Mass.) using the AOCS method described in the above-disclosed Firestone reference. Lipid or oil samples may be run at 110° C. and FAMEs may be tested at 90° C., with air flow set at 35 kPa with a resulting velocity of about 140 ml/min. A presently preferred method for determining OSI values is described by T. A. Isbell et al., “Oxidative Stability Index of Vegetable Oils in Binary Mixtures with Meadowfoam Oil,” Industrial Crops and Products 9, 115–123 (1999).
Unless otherwise stated, Oxidative Stability Index (OSI) values were determined on 5.00 ±0.05 g lipid or oil samples in triplicate according to AOCS Official Method Cd 12b-92 (AOCS, 1993) at 90° C., 110° C. and/or 130° C. on an oxidative stability instrument manufactured by Omnion (Rockland, Mass.). Details of the procedure have been published by Isbell et al., “Oxidative Stability Index of Vegetable Oils in Binary Mixtures with Meadowfoam Oil,” Ind. Crops Prod. 9, 115–123 (1999). When compounds of the present invention were added to the lipid or oil sample being tested, the compounds (0.1% to 1.0% by weight) were added to the test lipid or oil (20 g) and dissolved or dispersed at room temperature before triplicate 5.00 g samples of lipid or oil with an added compound of the invention were weighed into the OSI test tube.
The 1,3-di(3-methoxybenzyl) thiourea prepared in Example 3 was mixed at 0.1%, 0.5% or 1.0% with refined meadowfoam seed oil (Lot #CW-4551, The Fanning Corp) and the oxidative stability of the mixtures was compared to that of refined meadowfoam seed oil at 130° C. The OSI times were 49.8 h, 159 h and 172 h, respectively, for the mixtures containing the thiourea compared to an OSI time of 14.9 h for this lot of refined meadowfoam seed oil with no additives at 130° C.
Thus, 1,3-bis(2-methoxyphenyl)-2-thiourea (Aldrich Chem Co.) added at 0. […] Likewise, 1,3-bis(3-methoxyphenyl)-2-thiourea at 0. 1% added to refined meadowfoam oil gave an OSI time of 27.0 h, an […] lower value than for the 1,3-di-(3-methoxybenzyl) thiourea produced in Example 3.

[2] = OSI test of jojoba oil mixed with additive; conditions: 110° C.
Excerpt: as §1, §2
(§3) Unless otherwise stated, Oxidative Stability Index (OSI) values were determined on 5.00 ±0.05 g lipid or oil samples in triplicate according to AOCS Official Method Cd 12b-92 (AOCS, 1993) at 90° C., 110° C. and/or 130° C. on an oxidative stability instrument manufactured by Omnion (Rockland, Mass.). Details of the procedure have been published by Isbell et al., “Oxidative Stability Index of Vegetable Oils in Binary Mixtures with Meadowfoam Oil,” Ind. Crops Prod. 9, 115–123 (1999). When compounds of the present invention were added to the lipid or oil sample being tested, the compounds (0.1% to 1.0% by weight) were added to the test lipid or oil (20 g) and dissolved or dispersed at room temperature before triplicate 5.00 g samples of lipid or oil with an added compound of the invention were weighed into the OSI test tube. […]

[3] = OSI test of unrefined (crude) meadowfoam seed oil, alone or mixed with additive; conditions: 110° C.
Excerpt: as §1, §2, §3

[4] = OSI test of high oleic sunflower oil mixed with additive; conditions: 1.0% additive, 130° C.
Excerpt: A presently preferred method of determining oxidative stability of lipids and oils employs the Oxidative Stability Index (OSI), which determines the oxidative stability of an oil by passing air through a sample under stringent temperature control. (Firestone, Oxidative Stability Index (OSI): Official Methods of Recommended Practices of the American Oil Chemists' Society (AOCS), 4th Ed. American Oil Chemists Society, Champaign, Ill., AOCS Official Method Cd 12b-92, 1993.) In this method, a stream of air is passed through the oil sample, which aids in the rapid degradation of the triglyceride into volatile organic acids. The air stream flushes the volatile acids from the oil into a conductivity cell containing water where the acids are solubilized. These acids, once dissolved in the water solution, disassociate into ions, thus changing the conductivity of the water. Therefore, a continuous measure of the conductivity of the cell by computer will indicate when a rapid rise in the conductivity occurs that corresponds to the induction point, oxidative failure of the sample. […]
Unless otherwise stated, Oxidative Stability Index (OSI) values were determined on 5.00 ±0.05 g lipid or oil samples in triplicate according to AOCS Official Method Cd 12b-92 (AOCS, 1993) at 90° C., 110° C. and/or 130° C. on an oxidative stability instrument manufactured by Omnion (Rockland, Mass.). […]

[5] = UVB and UVA molar absorptivities in chloroform; type: physicochemical; conditions: 0.01 mg/ml in chloroform
Method: The compounds synthesized in Example 3 were tested to determine their ability to absorb […] UVA light. UV spectra of quantitatively weighed and diluted samples (0.01 mg/ml) in chloroform were scanned from 244–450 nm at 240 nm/min on a Beckman DU 640 spectrophotometer (Beckman Coulter, Inc., Fullerton, Calif.). Amax in the 280–320 nm range was determined and converted to molar absorptivity for the UVB region, and Amax in the 320–400 nm range was determined and converted to molar absorptivity for the UVA region.

[6] = Decomposition temperature by differential scanning calorimetry; type: physicochemical; conditions: DSC, onset of decrease in slope of temperature-heat flow curve; unit not given (scans in ° C.)
Method: A dual cell Perkin Elmer differential scanning calorimeter (PE DSC 7, Norwalk, Conn.) was used to determine the thermal transitions of the compounds. All scans were carried out from 30° C. to 200° C. at a heating and cooling rate of 10° C./minute and 40° C./min, respectively, except for 1-(3-methoxybenzyl)-3-(1-propenyl) thiourea, for which the scans were carried out from 0° C. to 200° C. at a heating rate of 10° C./min, and 1-(3-methoxybenzyl)-3-octadecyl thiourea, for which both the heating and cooling rates were 10° C./min. 1,3-di(3-methoxybenzyl) thiourea and 1-(3-methoxybenzyl)-3-dodecyl thiourea were heated to 300° C., and 1-(3-methoxybenzyl)-3-(4-methoxybenzoyl) thiourea was heated to 250° C. to determine the decomposition temperature. The decomposition temperature was taken as the onset of a decrease in the slope of the temperature-heat flow DSC curve. The first heating curve was recorded in all cases, and liquid nitrogen was used to quench the samples after the first heating.

UVBMAX Molar Absorptivity ([5]; Amax in 280–320 nm): 5367
UVAMAX Molar Absorptivity ([5]; Amax in 320–400 nm): 0.0
Decomposition Temperature [6]: 265 °C
Compound: COc1cccc(CNC(=S)NCc2cccc(OC)c2)c1 [1,3-di(3-methoxybenzyl) thiourea]
OSI Time ([1]; refined meadowfoam seed oil Lot #CW-4551, 0.1% additive): 49.8 h
OSI Time ([1]; refined meadowfoam seed oil Lot #CW-4551, 0.5% additive): 159 h
OSI Time ([1]; refined meadowfoam seed oil Lot #CW-4551, 1.0% additive): 172 h
OSI Time ([1]; refined meadowfoam seed oil plus additive 0.1%): 49.8 h
OSI Time ([1]; refined meadowfoam seed oil plus additive 0.5%): 159 h
OSI Time ([1]; refined meadowfoam seed oil plus additive 1.0%): 172 h
increase in the OSI time ([1]; 0.1% additive): 234%
increase in the OSI time ([1]; 0.5% additive): 967%
increase in the OSI time ([1]; 1.0% additive): 1054%
OSI Time ([2]; 0.1% additive): 64.2 h
improvement of OSI time compared to jojoba oil alone ([2]; 0.1% additive): 30%
OSI Time ([2]; 1% additive): 168 h
improvement of OSI time compared to jojoba oil alone ([2]; 1% additive): 241%
OSI Time ([3]; 0.1% additive): 76.4 h
improvement of OSI time compared to meadowfoam oil alone ([3]; 0.1% additive): 15%
OSI Time ([3]; 1% additive): 211 h
improvement of OSI time compared to meadowfoam oil alone ([3]; 1% additive): 218%
OSI Time [4]: 157 h
improvement of OSI time compared to sunflower oil alone [4]: 1720%
